Reference: US20130059783A1, “COMPOSITIONS AND METHODS FOR EXPANDING BFU-E CELLS” (priority 2010, published 2013)

Tests used:
[1] = system: human peripheral blood erythroid progenitors; test: Erythroblast formation from human mobilized peripheral blood CD34+ cells; assay type: cell-based; details: 100 μM DMOG with 1 nM Dex, human CD34+ derived progenitors
Protocol: FIG. 6. […] Human mobilized CD34+ cells were first thawed and cultured in serum free medium supplemented with StemSpan® CC100 cytokine mix containing rhSCF, rhFlt-3L, rhIL-3 and rhIL-6 for 5 days. […] Total cell number was counted every other day until cell numbers dropped at day 5+19. More than 95% of cells at the end of the culture have erythroblast morphology (data not shown). […] Error bars show one standard deviation.
An experiment was performed on human hematopoietic progenitor cells from mobilized peripheral blood CD34+ cells that were first cultured 5 days in serum-free medium containing rhSCF, rhFlt-3L, rhIL-3 and rhIL-6. […] Similarly to the murine cultures >95% of cells at the end of the culture are erythroblasts (data not shown).

[2] = system: CFU-E cells; test: SFELE progenitor growth assay of sorted CFU-E cells; assay type: cell-based, mouse; details: CD71 and CD24a 20% high cells, 100 nM Dex and/or 333 μM DMOG
Protocol: (§1) FIGS. 1A-1F. […] Error bars show one standard deviation. […] Error bars show one standard deviation. […] Shown is the fraction of c-kit+ cells after 72 hours. […] Cell numbers in each clone were estimated under the microscope on Day 8.
(§2) FIGS. 3A-3B. […] The experimental protocol was similar to that used in FIGS. 1A and B except that the CFU-E and BFU-E cells were purer (CD71 and CD24a^20% high and CD71 and CD24a^10% low, respectively). […] (A) Proliferation of sorted CFU-E cells. […] Error bars show one standard deviation. (B) Proliferation of sorted BFU-E cells. […] Error bars show one standard deviation.
(§3) We developed a modified version of the serum free erythroid liquid expansion culture (SFELE) medium described by Dolzning et al. (Dolznig et al., 2006).

[3] = system: BFU-E cells; test: Serum free erythroid liquid expansion (SFELE) progenitor growth assay of sorted BFU-E cells; assay type: cell-based, mouse
Protocol: as §1, §2
FIG. 4. […] Cells were counted from day 4 until the day cell counts dropped.
(A) The total number of cells formed from 1000 BFU-E cells at different time points. […] Standard deviation between four separate biological experiments is shown in parenthesis (n/d=not determined).
as §3

[4] = system: Lin-Sca-1-c-kit+ bone marrow progenitor population; test: SFELE culture of Lin neg, c-kit pos, Sca-1 neg bone marrow cells; assay type: cell-based, mouse; details: for Enhancement of proliferation by DMOG above the effect of Dex: bone marrow cells, 333 μM DMOG
Excerpt: FIGS. 5A-5C. […] Total cell number was counted daily and normalized to the number of cells added to the culture. (n=4). Error bars show one standard deviation.
In the bone marrow BFU-E cells are found in the Lin^neg, c-kit^pos, Sca-1^neg fraction; this cell population contains mostly a mix of lineage restricted progenitor cells of which a minority are BFU-Es (Pronk et al., 2007).

[5] = system: BFU-E cells; test: CFU-E and BFU-E colony forming assays of BFU-E cells cultured in SFELE medium; assay type: cell-based, mouse; details: for Total colony numbers from 1,000 "BFU-E" cells: CFU-E 1 cluster / Total colony numbers from 1,000 "BFU-E" cells: large BFU-E >20 clusters / Total colony numbers from 1,000 "BFU-E" cells: small BFU-E 5-20 clusters: CD24 and CD71 10% low BFU-E cells, SFELE, 100 nM Dex and/or 333 μM DMOG
Protocol: Dexamethasone prevents BFU-E cell exhaustion, which allows more CFU-E cells to be formed. […] (A) The total number of cells formed from 1000 BFU-E cells at different time points. […] Standard deviation between four separate biological experiments is shown in parenthesis (n/d=not determined).
At daily intervals colony assays were performed (Table 2). As in the experiment in FIG. 3, for the first three days the total number of cells increased at the same rate in all cultures.
(§4) Colonies were scored after 3 days. […] The number of hemoglobinized early BFU-E and late BFU-E colonies was determined after 8-9 days following staining with 2,7-Diaminofluorene (Sigma Chemical, St. Louis, Mo.).

[6] = system: BFU-E cells; test: Colony forming assays of sorted BFU-E fractions (Table S2); assay type: cell-based, mouse; details: CD71/CD24a 10% low cells, 100 nM Dex and/or 333 μM DMOG
Excerpt: Separation of BFU-E and CFU-E cells by expression of CD71, CD24a or both CD71 and CD24a. C-kit positive BFU-E and CFU-E cells were sorted from FLEP cells based on expression of CD71, CD24a or both CD71 and CD24a. In all experiments the BFU-E fraction was the subset of c-kit^positive FLEP cells with the 10% lowest expression of CD71 and/or CD24a, while the CFU-E fraction was the subset with 20% highest expression of CD71 and/or CD24a. Sorted BFU-E and CFU-E populations were subjected to colony forming assays under two different conditions. […] The number of CFU-E colonies (±standard deviation) is shown. The sorted “BFU-E” populations mostly formed small CFU-E clusters rather than single CFU-E colonies in these assays. These CFU-E clusters are formed by precursors to CFU-Es and were scored separately as multi-CFU-Es. The number of “multi-CFU-Es” is not shown since these cells likely represent the same cells as those forming small BFU-E colonies.
The potential of the sorted cells to form large BFU-E, small BFU-E, CFU-G/M/Mk, and CFU-GEMM colonies (±standard deviation) was determined by a second assay in methyl cellulose containing 10U Epo, 20 nM IL-3, 20 nM IL-6 and 50 nM SCF per mL, and was scored at day 8-9. […] To determine the effect of DMOG, colony assays of sorted BFU-E (CD71 and CD24a^10% low) cells were also performed in the presence of 333 μM DMOG. In agreement with the finding that DMOG enhances BFU-E self-renewal BFU-E colonies were larger with a more immature appearance in the presence of DMOG and Dex. Therefore, in the presence of DMOG and Dex most BFU-E colonies were scored as “large BFU-Es.”
No GEMM colonies were formed (Table S2).
as §4

[7] = target: FIH (Homo sapiens, UniProt Q9NWT6); details: cited from earlier work
Sequence of FIH (Q9NWT6 whole entry): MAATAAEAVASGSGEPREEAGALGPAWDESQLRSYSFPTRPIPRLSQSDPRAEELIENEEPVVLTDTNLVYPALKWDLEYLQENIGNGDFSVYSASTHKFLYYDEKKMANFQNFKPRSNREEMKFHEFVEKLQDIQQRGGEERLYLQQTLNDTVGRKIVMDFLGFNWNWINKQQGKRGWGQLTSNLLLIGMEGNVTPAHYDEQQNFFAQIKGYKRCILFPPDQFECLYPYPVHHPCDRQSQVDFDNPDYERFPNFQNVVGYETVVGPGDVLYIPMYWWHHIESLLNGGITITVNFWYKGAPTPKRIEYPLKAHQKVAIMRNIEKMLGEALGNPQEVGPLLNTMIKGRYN

[8] = system: HIF prolyl hydroxylase; details: cited from earlier work
[9] = 333 μM DMOG and/or 100 nM Dex versus no additions
[10] = Day 3 of culture, 100 nM Dex or 333 μM DMOG alone

COC(=O)CNC(=O)C(=O)OC [DMOG, dimethyloxalylglycine]
Erythroblasts formed relative to cultures with Dex alone [1]: ~10 times | Increase of proliferation of sorted CFU-E cells [2]: do not significantly increase proliferation | Relative increase in total erythroblast output per BFU-E [3, 9]: 2.5 fold | Enhancement of BFU-E proliferation by DMOG ([3]; 333 μM DMOG with 10 nM Dex): 10 fold | Increase by DMOG of BFU-E proliferation in the presence of Dex ([3]; 333 μM DMOG with 100 nM Dex versus Dex alone): 7.3 fold | Increase of total number of cells after the first three days ([3]; CD24 and CD71 10% low BFU-E cells, 100 nM Dex and/or 333 μM DMOG): remained constant | Total cell expansion from 1000 "BFU-E" cells, liquid culture ([3]; CD24 and CD71 10% low BFU-E cells, SFELE, 100 nM Dex and/or 333 μM DMOG, day 1): 4,200 | Total cell expansion from 1000 "BFU-E" cells, liquid culture ([3]; CD24 and CD71 10% low BFU-E cells, SFELE, 100 nM Dex and/or 333 μM DMOG, day 2): 26,000 | Total cell expansion from 1000 "BFU-E" cells, liquid culture ([3]; CD24 and CD71 10% low BFU-E cells, SFELE, 100 nM Dex and/or 333 μM DMOG, day 3): 130,000 | Total cell expansion from 1000 "BFU-E" cells, liquid culture ([3]; CD24 and CD71 10% low BFU-E cells, SFELE, 100 nM Dex and/or 333 μM DMOG, day 4): 430,000 | Total cell expansion from 1000 "BFU-E" cells, liquid culture ([3]; CD24 and CD71 10% low BFU-E cells, SFELE, 100 nM Dex and/or 333 μM DMOG, day 5): 820,000 | Total cell expansion from 1000 "BFU-E" cells, liquid culture ([3]; CD24 and CD71 10% low BFU-E cells, SFELE, 100 nM Dex and/or 333 μM DMOG, day 6): 890,000 | Total cell expansion from 1000 "BFU-E" cells, liquid culture ([3]; CD24 and CD71 10% low BFU-E cells, SFELE, 100 nM Dex and/or 333 μM DMOG, day 7): 1,200,000 | Total cell expansion from 1000 "BFU-E" cells, liquid culture ([3]; CD24 and CD71 10% low BFU-E cells, SFELE, 100 nM Dex and/or 333 μM DMOG, day 8): 1,200,000 | Increase of proliferation of sorted BFU-E cells ([3]; CD71 and CD24a 10% low cells, SFELE, 100 nM Dex and/or 333 μM DMOG, versus no additions): 2 fold | Effect on proliferation of bone marrow cells ([4]; 333 μM DMOG alone, 1 nM and 100 nM Dex): little if any effect | Enhancement of proliferation by DMOG above the effect of Dex ([4]; 1 nM Dex): 2.1 fold | Enhancement of proliferation by DMOG above the effect of Dex ([4]; 10 nM Dex (so in the source)): 2.4 fold | Relative increase in CFU-E output per BFU-E [5, 9]: 2.1 fold | Total colony numbers from 1,000 "BFU-E" cells: CFU-E 1 cluster ([5]; day 0 (before culture)): 30 (±11) | Total colony numbers from 1,000 "BFU-E" cells: large BFU-E >20 clusters ([5]; day 0 (before culture)): 423 (±31) | Total colony numbers from 1,000 "BFU-E" cells: small BFU-E 5-20 clusters ([5]; day 0 (before culture)): 262 (±64) | Total colony numbers from 1,000 "BFU-E" cells: CFU-E 1 cluster ([5]; day 1): 637 (±227) | Total colony numbers from 1,000 "BFU-E" cells: large BFU-E >20 clusters ([5]; day 1): 428 (±72) | Total colony numbers from 1,000 "BFU-E" cells: small BFU-E 5-20 clusters ([5]; day 1): 1,284 (±683) | Total colony numbers from 1,000 "BFU-E" cells: CFU-E 1 cluster ([5]; day 2): 6,991 (±1,226) | Total colony numbers from 1,000 "BFU-E" cells: large BFU-E >20 clusters ([5]; day 2): 217 (±33) | Total colony numbers from 1,000 "BFU-E" cells: small BFU-E 5-20 clusters ([5]; day 2): 3,232 (±1,416) | Total colony numbers from 1,000 "BFU-E" cells: CFU-E 1 cluster ([5]; day 3): 23,685 (±5,919) | Total colony numbers from 1,000 "BFU-E" cells: large BFU-E >20 clusters ([5]; day 3): 156 (±69) | Total colony numbers from 1,000 "BFU-E" cells: small BFU-E 5-20 clusters ([5]; day 3): 4,399 (±2,039) | Total colony numbers from 1,000 "BFU-E" cells: CFU-E 1 cluster ([5]; day 4): 27,530 (±13,756) | Total colony numbers from 1,000 "BFU-E" cells: CFU-E 1 cluster ([5]; day 5): 26,730 (±9,557) | Total colony numbers from 1,000 "BFU-E" cells: large BFU-E >20 clusters ([5]; day 5): 0 | Total colony numbers from 1,000 "BFU-E" cells: small BFU-E 5-20 clusters ([5]; day 5): 1,000 (±365) | Total colony numbers from 1,000 "BFU-E" cells: CFU-E 1 cluster ([5]; day 6): 9,598 (±8,627) | BFU-Es per plated BFU-E [5, 10]: 4.8 | CFU-Es per plated BFU-E [5, 10]: 24 | CFU-E colonies [6]: 21 (±11) colonies per 1000 plated cells | CFU-G/M/Meg colonies [6]: 5 (±6) colonies per 1000 plated cells | GEMM colonies [6]: 0 colonies per 1000 plated cells | large BFU-E colonies [6]: 164 (±23) colonies per 1000 plated cells | small BFU-E colonies [6]: 243 (±30) colonies per 1000 plated cells

O=C(O)C(=O)N[C@H](Cc1ccccc1)C(=O)O [N-oxalyl-d-phenylalanine]
Inhibition of FIH [7]: inhibit the FIH | Inhibition of a HIF prolyl hydroxylase [8]: not a HIF prolyl hydroxylase
